{"source": "ChEMBL document CHEMBL5338719", "about": "“Recent advance on pleiotropic cholinesterase inhibitors bearing amyloid modulation efficacy” (Eur J Med Chem, 2022)", "key": {"Cholinesterase [1]": {"target": "T1, Cholinesterase (Homo sapiens, UniProt P06276)", "T1 sequence (P06276 whole entry)": "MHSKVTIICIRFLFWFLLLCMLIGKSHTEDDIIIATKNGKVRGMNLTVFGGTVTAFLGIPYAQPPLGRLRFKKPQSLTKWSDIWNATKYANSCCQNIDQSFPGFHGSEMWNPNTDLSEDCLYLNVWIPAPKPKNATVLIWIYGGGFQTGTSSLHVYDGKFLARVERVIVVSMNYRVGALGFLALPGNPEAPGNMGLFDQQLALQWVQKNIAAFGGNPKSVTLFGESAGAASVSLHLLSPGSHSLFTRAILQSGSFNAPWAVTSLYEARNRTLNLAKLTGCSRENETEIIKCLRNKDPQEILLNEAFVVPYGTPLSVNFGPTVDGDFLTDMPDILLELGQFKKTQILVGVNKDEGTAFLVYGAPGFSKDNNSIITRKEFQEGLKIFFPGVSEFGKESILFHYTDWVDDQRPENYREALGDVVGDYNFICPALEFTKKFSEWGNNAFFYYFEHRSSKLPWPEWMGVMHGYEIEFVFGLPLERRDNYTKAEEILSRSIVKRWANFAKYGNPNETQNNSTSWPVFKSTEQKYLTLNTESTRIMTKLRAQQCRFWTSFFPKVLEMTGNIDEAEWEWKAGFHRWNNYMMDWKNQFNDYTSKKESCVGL", "assay": "Inhibition of human BChE"}, "Acetylcholinesterase [2]": {"target": "T2, Acetylcholinesterase (Homo sapiens, UniProt P22303)", "T2 sequence (P22303 whole entry)": "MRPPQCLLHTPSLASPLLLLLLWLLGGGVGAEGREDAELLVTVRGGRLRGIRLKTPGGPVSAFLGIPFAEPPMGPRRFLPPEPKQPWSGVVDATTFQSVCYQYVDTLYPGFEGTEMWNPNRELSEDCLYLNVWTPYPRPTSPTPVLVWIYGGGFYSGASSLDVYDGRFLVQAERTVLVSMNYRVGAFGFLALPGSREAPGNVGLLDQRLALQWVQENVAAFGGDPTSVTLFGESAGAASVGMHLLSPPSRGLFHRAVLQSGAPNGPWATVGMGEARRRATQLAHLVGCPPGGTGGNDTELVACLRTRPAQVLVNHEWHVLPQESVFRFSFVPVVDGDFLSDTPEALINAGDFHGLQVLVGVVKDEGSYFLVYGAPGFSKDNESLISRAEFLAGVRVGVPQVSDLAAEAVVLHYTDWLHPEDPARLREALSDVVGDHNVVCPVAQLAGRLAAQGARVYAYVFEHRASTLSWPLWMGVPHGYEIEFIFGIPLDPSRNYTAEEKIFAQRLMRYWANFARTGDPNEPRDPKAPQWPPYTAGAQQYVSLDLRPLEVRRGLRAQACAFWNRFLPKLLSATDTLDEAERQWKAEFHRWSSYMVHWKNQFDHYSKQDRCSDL", "assay": "Inhibition of human AChE"}, "Acetylcholinesterase [3]": {"target": "T3, Acetylcholinesterase (Electrophorus electricus, UniProt O42275)", "T3 sequence (O42275 whole entry)": "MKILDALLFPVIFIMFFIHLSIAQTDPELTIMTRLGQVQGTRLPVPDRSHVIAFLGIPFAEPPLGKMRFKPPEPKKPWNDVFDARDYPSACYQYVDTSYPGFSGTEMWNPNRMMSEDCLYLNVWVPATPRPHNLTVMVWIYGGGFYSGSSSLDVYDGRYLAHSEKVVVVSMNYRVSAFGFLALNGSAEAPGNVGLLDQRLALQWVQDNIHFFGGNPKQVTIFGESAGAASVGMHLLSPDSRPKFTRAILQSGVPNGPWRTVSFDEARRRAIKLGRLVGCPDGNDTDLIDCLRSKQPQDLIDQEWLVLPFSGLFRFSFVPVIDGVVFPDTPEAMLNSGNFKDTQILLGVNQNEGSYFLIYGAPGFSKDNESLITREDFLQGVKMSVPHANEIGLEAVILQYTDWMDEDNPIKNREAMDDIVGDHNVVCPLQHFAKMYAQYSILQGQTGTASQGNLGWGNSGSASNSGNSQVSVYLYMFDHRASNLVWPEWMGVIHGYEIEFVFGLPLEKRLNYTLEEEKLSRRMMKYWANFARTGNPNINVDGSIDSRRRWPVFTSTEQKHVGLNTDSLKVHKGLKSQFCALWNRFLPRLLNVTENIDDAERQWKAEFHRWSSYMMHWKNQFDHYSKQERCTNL", "assay": "Inhibition of electric eel AChE"}, "Beta-secretase 1 [4]": {"target": "T4, Beta-secretase 1 (Homo sapiens, UniProt P56817)", "T4 sequence (P56817 whole entry)": "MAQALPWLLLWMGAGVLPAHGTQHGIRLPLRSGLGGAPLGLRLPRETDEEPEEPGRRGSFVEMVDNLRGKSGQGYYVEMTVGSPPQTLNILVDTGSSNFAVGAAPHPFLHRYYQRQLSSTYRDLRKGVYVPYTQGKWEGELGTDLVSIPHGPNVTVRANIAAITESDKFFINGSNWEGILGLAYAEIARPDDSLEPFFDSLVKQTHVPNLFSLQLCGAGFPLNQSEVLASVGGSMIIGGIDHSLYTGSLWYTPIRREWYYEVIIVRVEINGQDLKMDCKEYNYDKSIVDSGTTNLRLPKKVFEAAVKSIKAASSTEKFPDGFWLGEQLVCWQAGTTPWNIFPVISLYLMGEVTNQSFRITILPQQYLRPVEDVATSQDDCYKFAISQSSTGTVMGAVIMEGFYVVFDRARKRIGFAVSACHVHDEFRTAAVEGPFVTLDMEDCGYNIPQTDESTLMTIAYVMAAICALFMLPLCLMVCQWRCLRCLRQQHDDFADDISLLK", "assay": "Inhibition of BACE1 (unknown origin)"}, "[5]": {"target": "T5, Amyloid-beta precursor protein (Homo sapiens, UniProt P05067)", "T5 sequence (P05067 whole entry)": "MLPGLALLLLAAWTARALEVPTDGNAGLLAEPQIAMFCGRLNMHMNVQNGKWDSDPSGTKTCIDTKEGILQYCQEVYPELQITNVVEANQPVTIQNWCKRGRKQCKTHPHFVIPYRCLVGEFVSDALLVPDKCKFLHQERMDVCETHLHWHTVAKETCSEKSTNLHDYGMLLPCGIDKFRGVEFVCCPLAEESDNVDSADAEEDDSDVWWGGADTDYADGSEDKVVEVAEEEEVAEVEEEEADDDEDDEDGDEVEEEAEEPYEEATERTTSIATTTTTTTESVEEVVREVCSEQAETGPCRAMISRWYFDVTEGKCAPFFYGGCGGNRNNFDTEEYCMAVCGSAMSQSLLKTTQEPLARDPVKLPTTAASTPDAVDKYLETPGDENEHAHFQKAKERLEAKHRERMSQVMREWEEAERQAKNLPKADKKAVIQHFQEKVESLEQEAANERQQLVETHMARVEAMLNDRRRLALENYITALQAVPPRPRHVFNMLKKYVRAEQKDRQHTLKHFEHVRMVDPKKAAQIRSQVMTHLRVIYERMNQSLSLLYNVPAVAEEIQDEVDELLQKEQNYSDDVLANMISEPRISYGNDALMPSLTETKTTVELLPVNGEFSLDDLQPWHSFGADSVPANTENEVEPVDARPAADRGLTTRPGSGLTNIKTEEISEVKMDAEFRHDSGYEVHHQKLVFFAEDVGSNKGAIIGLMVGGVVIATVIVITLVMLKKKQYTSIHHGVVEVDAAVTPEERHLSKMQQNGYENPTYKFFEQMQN", "assay": "Inhibition of amyloid beta (25 to 35) (unknown origin) aggregation at 10 uM relative to control"}, "Cholinesterase [6]": {"target": "T6, Cholinesterase (Equus caballus, UniProt P81908)", "T6 sequence (P81908 whole entry)": "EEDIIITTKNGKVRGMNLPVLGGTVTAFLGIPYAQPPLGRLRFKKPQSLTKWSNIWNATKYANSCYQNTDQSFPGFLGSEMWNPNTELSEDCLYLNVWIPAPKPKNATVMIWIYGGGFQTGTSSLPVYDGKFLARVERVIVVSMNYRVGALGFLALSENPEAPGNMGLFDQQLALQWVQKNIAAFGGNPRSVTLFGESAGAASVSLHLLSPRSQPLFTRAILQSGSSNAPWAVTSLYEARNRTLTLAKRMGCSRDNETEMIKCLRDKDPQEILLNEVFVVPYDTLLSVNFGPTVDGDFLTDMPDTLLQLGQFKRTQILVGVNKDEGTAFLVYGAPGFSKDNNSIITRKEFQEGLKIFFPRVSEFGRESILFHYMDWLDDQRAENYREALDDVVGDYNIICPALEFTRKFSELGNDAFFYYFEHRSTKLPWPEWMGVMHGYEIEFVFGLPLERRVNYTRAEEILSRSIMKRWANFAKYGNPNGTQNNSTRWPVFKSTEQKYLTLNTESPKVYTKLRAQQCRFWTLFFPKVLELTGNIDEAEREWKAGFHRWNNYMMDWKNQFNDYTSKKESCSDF", "assay": "Inhibition of equine BChE"}, "[7]": {"target": "T5, Amyloid-beta precursor protein", "assay": "Inhibition of amyloid beta 42 (unknown origin) aggregation at 25 uM relative to control"}, "Acetylcholinesterase [8]": {"target": "T2, Acetylcholinesterase", "assay": "Inhibition of human AChE by Ellmans method"}, "Beta-secretase 1 [9]": {"target": "T4, Beta-secretase 1", "assay": "Inhibition of BACE1 (unknown origin) by FRET-based fluorescent analysis"}, "Cholinesterase [10]": {"target": "T1, Cholinesterase", "assay": "Inhibition of human BChE by Ellmans method"}, "[11]": {"target": "T5, Amyloid-beta precursor protein", "assay": "Inhibition of amyloid beta 42 (unknown origin) aggregation at 80 uM relative to control"}, "Acetylcholinesterase [12]": {"target": "Acetylcholinesterase (Torpedo californica, UniProt P04058)", "sequence (P04058 whole entry)": "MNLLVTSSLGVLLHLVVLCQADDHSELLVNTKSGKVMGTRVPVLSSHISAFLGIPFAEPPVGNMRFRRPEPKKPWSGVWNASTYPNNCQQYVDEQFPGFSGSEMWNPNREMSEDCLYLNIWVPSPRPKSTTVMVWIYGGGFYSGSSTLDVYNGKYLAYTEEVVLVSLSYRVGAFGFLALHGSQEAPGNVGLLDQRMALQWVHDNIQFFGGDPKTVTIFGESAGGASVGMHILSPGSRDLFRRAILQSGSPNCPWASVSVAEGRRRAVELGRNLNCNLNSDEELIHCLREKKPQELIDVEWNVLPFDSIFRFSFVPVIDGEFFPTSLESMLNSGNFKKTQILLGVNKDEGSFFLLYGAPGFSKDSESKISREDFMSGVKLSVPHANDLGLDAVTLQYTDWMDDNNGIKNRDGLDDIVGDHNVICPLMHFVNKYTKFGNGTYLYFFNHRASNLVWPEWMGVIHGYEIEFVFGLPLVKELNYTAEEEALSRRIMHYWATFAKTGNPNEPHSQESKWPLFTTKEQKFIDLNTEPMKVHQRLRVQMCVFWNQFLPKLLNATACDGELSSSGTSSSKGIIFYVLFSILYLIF", "assay": "Inhibition of pacific electric ray AChE", "parameters": "species or system Tetronarce californica"}, "[13]": {"target": "T5, Amyloid-beta precursor protein", "assay": "Inhibition of amyloid beta 42 (unknown origin) aggregation at 50 uM by Thioflavin T-based fluorescence assay relative to control"}, "Acetylcholinesterase [14]": {"target": "T2, Acetylcholinesterase", "assay": "Inhibition of human erythrocyte AChE using […] as substrate preincubated for 5 mins followed by substrate addition measured Ellmans method"}, "[15]": {"target": "T5, Amyloid-beta precursor protein", "assay": "Inhibition of amyloid beta 1 to 42 (unknown origin) CuCl2 induced aggregation at 40 uM by ThT fluorometric assay relative to control"}, "[16]": {"target": "T5, Amyloid-beta precursor protein", "assay": "Inhibition of amyloid beta 1 to 42 (unknown origin) aggregation at 50 uM measured every 10 mins for 72 hrs by ThT fluorometric assay relative to control"}, "[17]": {"target": "Microtubule-associated protein tau (Homo sapiens) (UniProt P10636)", "sequence (P10636 whole entry)": "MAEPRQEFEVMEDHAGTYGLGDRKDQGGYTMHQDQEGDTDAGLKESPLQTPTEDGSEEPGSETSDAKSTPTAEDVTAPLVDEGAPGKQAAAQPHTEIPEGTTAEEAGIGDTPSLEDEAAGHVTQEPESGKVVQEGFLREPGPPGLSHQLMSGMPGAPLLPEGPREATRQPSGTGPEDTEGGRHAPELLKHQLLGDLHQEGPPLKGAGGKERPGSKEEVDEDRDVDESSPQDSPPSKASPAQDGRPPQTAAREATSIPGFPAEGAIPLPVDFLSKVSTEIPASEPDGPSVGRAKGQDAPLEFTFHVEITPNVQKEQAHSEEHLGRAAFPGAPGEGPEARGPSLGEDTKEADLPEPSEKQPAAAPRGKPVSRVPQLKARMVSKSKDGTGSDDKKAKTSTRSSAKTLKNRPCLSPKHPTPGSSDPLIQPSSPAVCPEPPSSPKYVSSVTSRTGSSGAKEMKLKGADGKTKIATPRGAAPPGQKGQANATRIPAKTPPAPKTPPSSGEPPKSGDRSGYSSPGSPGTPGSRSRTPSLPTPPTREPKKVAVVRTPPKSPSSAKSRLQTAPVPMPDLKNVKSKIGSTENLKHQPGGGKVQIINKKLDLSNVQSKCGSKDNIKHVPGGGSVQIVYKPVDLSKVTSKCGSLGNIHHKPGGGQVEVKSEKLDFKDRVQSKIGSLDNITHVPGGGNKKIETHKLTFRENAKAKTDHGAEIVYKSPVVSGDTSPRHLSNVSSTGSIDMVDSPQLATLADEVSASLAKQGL", "assay": "Inhibition of tau (306 to 336 residue) (unknown origin) aggregation at 50 uM incubated overnight by ThT fluorometric assay relative to control"}, "Acetylcholinesterase [18]": {"target": "T3, Acetylcholinesterase", "assay": "Inhibition of electric eel AChE by Ellman's method"}, "[19]": {"target": "T5, Amyloid-beta precursor protein", "assay": "Inhibition of amyloid beta 42 (unknown origin) self aggregation at 25 uM by ThT fluorometric assay relative to control"}, "Cholinesterase [20]": {"target": "T6, Cholinesterase", "assay": "Inhibition of equine BChE incubated for 15 mins by Ellman's method"}, "[21]": {"target": "T5, Amyloid-beta precursor protein", "assay": "Inhibition of amyloid beta 42 (unknown origin) aggregation at 10 uM for 24 hrs by ThT fluorescence assay relative to control"}, "[22]": {"target": "T5, Amyloid-beta precursor protein", "assay": "Inhibition of amyloid beta 42 (unknown origin) aggregation at 25 uM by Thioflavin T-based fluorescence assay relative to control"}, "Cholinesterase [23]": {"target": "T6, Cholinesterase", "assay": "Inhibition of equine BChE using butyrylthiocholine as substrate by Ellman's method"}, "Acetylcholinesterase [24]": {"target": "T3, Acetylcholinesterase", "assay": "Inhibition of electric eel AchE using acetylthiocholine as substrate by Ellman's method"}, "Acetylcholinesterase [25]": {"target": "T2, Acetylcholinesterase", "assay": "Inhibition of human recombinant AChE preincubated for 5 mins followed by substrate addition measured every 2 mins by Ellmans method"}, "Cholinesterase [26]": {"target": "T1, Cholinesterase", "assay": "Inhibition of human recombinant BChE by Ellmans method preincubated for 5 mins followed by substrate addition measured every 2 mins"}, "[27]": {"target": "T5, Amyloid-beta precursor protein", "assay": "Inhibition of amyloid beta 42 (unknown origin) self aggregation incubated for 48 hrs by fluoroMax-4 spectrofluorometeric analysis"}, "Acetylcholinesterase [28]": {"target": "T3, Acetylcholinesterase", "assay": "Inhibition of electric eel AChE using acetylthiocholine iodine as substrate by Ellman's method"}, "Beta-secretase 1 [29]": {"target": "T4, Beta-secretase 1", "assay": "Inhibition of BACE1 (unknown origin) at 50 uM by FRET assay relative to control"}, "[30]": {"target": "T5, Amyloid-beta precursor protein", "assay": "Inhibition of amyloid beta 1 to 42 (unknown origin) aggregation at 50 uM by ThT binding assay relative to control"}}, "data": [{"smiles": "S=C(NCCCCNc1c2c(nc3ccccc13)CCCC2)Nc1c[nH]c2ccccc12", "values": [{"measurement": "IC50", "setting": "Cholinesterase [1]", "value": 0.076, "unit": "µM"}, {"measurement": "IC50", "setting": "Acetylcholinesterase [2]", "value": 0.025, "unit": "µM"}]}, {"smiles": "O=C(NCCNc1c2c(nc3cc(Cl)ccc13)CCCC2)c1cc(-c2ccc(Cl)cc2)on1", "values": [{"measurement": "IC50", "setting": "Acetylcholinesterase [3]", "value": 0.052, "unit": "µM"}, {"measurement": "IC50", "setting": "Beta-secretase 1 [4]", "value": 1.65, "unit": "µM"}, {"measurement": "inhibition", "setting": "[5]", "value": 79.4, "unit": "%"}, {"measurement": "IC50", "setting": "Cholinesterase [6]", "value": 0.372, "unit": "µM"}]}, {"smiles": "O=C(CCCN(Cc1ccccn1)Cc1ccccn1)NCCCNc1c2c(nc3ccccc13)CCCC2", "values": [{"measurement": "inhibition", "setting": "[7]", "value": 71.1, "unit": "%"}]}, {"smiles": "FC(F)(F)c1ccc(-c2nnc(CNC3CCN(Cc4ccccc4)C3)o2)cc1", "note": "(configuration not stated)", "values": [{"measurement": "IC50", "setting": "Acetylcholinesterase [8]", "value": 0.064, "unit": "µM"}, {"measurement": "IC50", "setting": "Beta-secretase 1 [9]", "value": 0.143, "unit": "µM"}, {"measurement": "IC50", "setting": "Cholinesterase [10]", "value": 0.074, "unit": "µM"}]}, {"smiles": "COc1cccc2cc(C(=O)NCCCNc3c4c(nc5cc(Cl)ccc35)CCCC4)oc12", "values": [{"measurement": "inhibition", "setting": "[11]", "value": 57.8, "unit": "%"}, {"measurement": "IC50", "setting": "Acetylcholinesterase [12]", "value": 0.13, "unit": "µM"}]}, {"smiles": "O=c1nc2sc3ccccc3n2c2ncccc12", "values": [{"measurement": "inhibition", "setting": "[13]", "value": 30.8, "unit": "%"}, {"measurement": "IC50", "setting": "Acetylcholinesterase [14]", "value": 2.78, "unit": "µM"}]}, {"smiles": "COC(=O)C(C)c1ccc(-c2ccc(C(=O)/C=C/c3ccc(CN4CCCC4)c(O)c3)cc2)c(F)c1", "note": "(configuration not stated)", "values": [{"measurement": "IC50", "setting": "Acetylcholinesterase [3]", "value": 7.15, "unit": "µM"}, {"measurement": "inhibition", "setting": "[7]", "value": 70.7, "unit": "%"}]}, {"smiles": "N=c1oc2ccccc2cc1C(=O)Nc1cc(Br)ccc1N1CCN(Cc2ccc(F)cc2)CC1", "values": [{"measurement": "IC50", "setting": "Beta-secretase 1 [4]", "value": 6.31, "unit": "µM"}, {"measurement": "IC50", "setting": "Cholinesterase [1]", "value": 10.5, "unit": "µM"}]}, {"smiles": "CC(C)C1NC(=O)C=C1NCCN1CCN(Cc2ccccc2)CC1", "note": "(configuration not stated)", "values": [{"measurement": "inhibition", "setting": "[15]", "value": 78.4, "unit": "%"}]}, {"smiles": "Clc1ccc2c(NCCCCCN3c4ccccc4Sc4ccccc43)c3c(nc2c1)CCCC3", "values": [{"measurement": "IC50", "setting": "Cholinesterase [1]", "value": 0.19, "unit": "µM"}, {"measurement": "inhibition", "setting": "[16]", "value": 74.1, "unit": "%"}, {"measurement": "IC50", "setting": "Acetylcholinesterase [2]", "value": 0.008, "unit": "µM"}, {"measurement": "inhibition", "setting": "[17]", "value": 50.5, "unit": "%"}]}, {"smiles": "O=C(/C=C/c1cccs1)N1CCc2ccccc2C1", "values": [{"measurement": "IC50", "setting": "Acetylcholinesterase [18]", "value": 19.4, "unit": "µM"}, {"measurement": "IC50", "setting": "Cholinesterase [10]", "value": 2.5, "unit": "µM"}, {"measurement": "inhibition", "setting": "[19]", "value": 65.2, "unit": "%"}]}, {"smiles": "CN(C)/C=C/C(=O)c1cc2ccc(OCc3cn(Cc4ccc(F)c(F)c4)nn3)cc2oc1=O", "values": [{"measurement": "IC50", "setting": "Cholinesterase [20]", "value": 21.7, "unit": "µM"}, {"measurement": "inhibition", "setting": "[21]", "value": 32.6, "unit": "%"}]}, {"smiles": "CCc1cc(-c2nnc(Nc3ccccc3Cl)s2)c(O)cc1O", "values": [{"measurement": "inhibition", "setting": "[22]", "value": 55.8, "unit": "%"}, {"measurement": "IC50", "setting": "Cholinesterase [23]", "value": 18.3, "unit": "µM"}, {"measurement": "IC50", "setting": "Acetylcholinesterase [24]", "value": 0.031, "unit": "µM"}]}, {"smiles": "O=C(NCCCNc1c2c(nc3cc(Cl)ccc13)CCCC2)c1nc2ccc([N+](=O)[O-])cc2s1", "values": [{"measurement": "IC50", "setting": "Acetylcholinesterase [25]", "value": 0.018, "unit": "µM"}, {"measurement": "IC50", "setting": "Cholinesterase [26]", "value": 4660, "unit": "µM"}, {"measurement": "IC50", "setting": "[27]", "value": 3.8, "unit": "µM"}]}, {"smiles": "COc1ccc(/C=C/C(=O)NCCc2cc3ccccc3[nH]2)cc1OC", "values": [{"measurement": "IC50", "setting": "Acetylcholinesterase [28]", "value": 11.5, "unit": "µM"}, {"measurement": "inhibition", "setting": "Beta-secretase 1 [29]", "value": 40.7, "unit": "%"}, {"measurement": "inhibition", "setting": "[30]", "value": 10.1, "unit": "%"}]}]}
